Reference: patent publication US20250228913A1, “STABILIZED OMEGA-3 OPHTHALMIC COMPOSITIONS” (Allergan, Inc., priority 2014, published 2025)
Entries after “also recorded” stand apart in the source; their conditions may differ. Where two headings read alike, the source gives them in different places.

What was measured:
[1] = Chemical stability of omega-3 oils in emulsions (FIG. 1, FIG. 2); details: emulsions of Table 10
[2] = Physical and chemical stability monitoring of emulsion prototypes with different antioxidants and additives
Method: A variety of ophthalmic compositions were evaluated which contained antioxidants with the intent to prevent the degradation of the omega-3 oil components. A common problem with omega-3 oils is their propensity to degrade and become rancid over time.
Emulsion prototypes were designed using a range of excipients including different surfactants, antioxidants and aqueous additives. The physical and chemical stability of these prototype formulations were monitored over 3, 6 and/or 12 months at accelerated and/or long-term storage conditions. […] Details of these stability studies are provided in the examples herein.

[3] = Physical appearance of omega-3 emulsions on storage; type: physicochemical; details: added in the oil phase

Effect of excipient on chemical stability of omega-3 oils in emulsion [1] | Effect of antioxidant or additive on stability of omega-3 oils [2] | Compound | Effect of antioxidant or additive on stability of omega-3 oils ([2]; in ophthalmic emulsions) | Effect on physical stability of omega-3 oils in emulsion [3]
– | did not impact stability | OC[C@H]1O[C@H](O[C@H]2O[C@H](CO)[C@@H](O)[C@H](O)[C@H]2O)[C@H](O)[C@@H](O)[C@@H]1O [trehalose] | – | –
– | stabilizing effect | Cc1cc(C(C)(C)C)c(O)c(C(C)(C)C)c1 [BHT, 2,6-bis(1,1-dimethylethyl)-4-methylphenol] | – | improved physical stability
No significant impact | did not impact stability | CC(=O)C(=O)O [pyruvate] | – | –

Second part, the compound before the results:

Compound | Effect of excipient on chemical stability of omega-3 oils in emulsion [1] | Effect of antioxidant or additive on stability of omega-3 oils [2] | Effect of antioxidant or additive on stability of omega-3 oils ([2]; in ophthalmic emulsions) | Effect on physical stability of omega-3 oils in emulsion [3]
Cc1c(C)c2c(c(C)c1O)CC[C@@](C)(CCC[C@H](C)CCC[C@H](C)CCCC(C)C)O2 [alpha tocopherol] | worsened the chemical stability | – | – | –
CC(=O)Oc1c(C)c(C)c2c(c1C)CCC(C)(CCC[C@H](C)CCC[C@H](C)CCCC(C)C)O2 (stereo partly drawn) [Vitamin E acetate] | – | – | did not show beneficial effects; also recorded: led to degradation of omega-3 oil | –
vitamin E | – | not effective | – | –
O=C([O-])CN(CCN(CC(=O)[O-])CC(=O)O)CC(=O)O.[Na+].[Na+] [EDTA, edetate disodium] | No significant impact | – | did not impact stability | –
COc1ccc(O)c(C(C)(C)C)c1 [BHA, Butylated hydroxyanisole] | – | – | stabilizing effect | improved physical stability
